According to US20070049626A1, “Treating premature ejaculation using gabapentin and pregabalin prodrugs” (priority 2005, published 2007):

Experiments:
[1] = tested on: PCA-induced ejaculation in anaesthetized rats; assay: p-chloroamphetamine (PCA)-induced ejaculation in anaesthetized rats; type: in vivo, rat; settings: for effect on PCA-induced ejaculation: 1, 3, 10 or 30 mg/kg po, 60 min prior to PCA; for quality of erection: PCA model; for ejaculatory latency: doses above 3 mg/kg po, excipient-only about 300 s
Method: (§1) For all the sexual behavior tests, the rapid ejaculating Sprague Dawley rats, weighing 350-450 g, are used as an animal model of premature ejaculation (classified as ejaculatory latency <300 s during baseline assessment). Prior to the experiments the animals are housed in groups (2 rats per cage) under controlled 12 h light-dark cycle (lights on at 07:00), constant temperature (23±1° C.), and humidity (55±5%). The animals are given free access to standard food pellets and water.
The compounds are dosed orally by taking the tablets of Examples 1 and 2, finely crushing them and suspending the resulting powder in an aqueous vehicle for oral administration to rats by gavage. Compounds (100) and (101) are tested at 1, 3, 10 or 30 mg/kg po, 60 min prior to PCA administration. Compounds (100) and (101) each dose-dependently increases ejaculatory latency by up to 250%. As a baseline comparison, some of the rats are given a placebo formulation similar to Examples 1 and 2, but containing no prodrug.

[2] = tested on: rapid ejaculating Sprague Dawley rats; assay: Copulatory behavior in rapid ejaculating conscious rats (model of premature ejaculation); type: in vivo, rat; settings: rapidly-ejaculating conscious rats; for other effects on copulatory behavior: 10 mg/kg oral; for increase of ejaculatory latency / ejaculatory latency (time to ejaculate): 10 mg/kg, 60 min post oral dosing; for increase of ejaculatory latency: P<0.01; for ejaculatory latency (time to ejaculate): excipient-only about 140 s
Method: as §1
The rats are placed in an observation arena (50-60 cm diameter), starting 5 hours into the dark cycle and observed under red illumination. Three to four minutes after placing the male in the arena, a receptive female (ovariectomised, oestradiol benzoate/progesterone injection 48 hour before behavioral study) is introduced into the arena and the following parameters are noted: (i) ejaculatory latency (EJL; time taken from addition of receptive female into the arena to ejaculation); (ii) copulatory efficiency (CE; ejaculatory latency/the number of intromissions to ejaculation, i.e., the number of seconds between intromissions); (iii) intromission frequency (IF; the number of intromissions to ejaculation); (iv) mount frequency (MF; the number of mounts to ejaculation); (v) post ejaculatory interval (PEI; the time taken from ejaculation to the commencement of copulatory behavior).
Rodent copulatory behavior is characterized by a series of mounts, with and without vaginal insertion (50-80% of mounts result in intromission (vaginal penetration)) and ejaculation occurs after 6 to 12 intromissions. Each intromission lasts a matter of seconds—it is not possible to quantify intromission length i.e., intravaginal latency. The effect of compounds (100) and (101) is assessed on a number of copulatory parameters (see above). We are focusing on ejaculatory latency as an objective clinical outcome measure of time taken to achieve ejaculation. The study is performed in rapid ejaculating rats as a model of premature ejaculation (rats characterized by ejaculatory latency <300 s at baseline). Compound (100) and (101) increases ejaculatory latency by 58% in rapidly-ejaculating conscious rats (P<0.01), i.e., compound (100) and (101) (each to be dosed at 10 mg/kg, 60 min post oral dosing)-treated animals take about 200 s to ejaculate compared to about 140 s in excipient-only treated animals.

[3] = Tmax after oral administration of immediate release formulation; type: in vivo; settings: human, blood, following oral administration
Description: The compounds disclosed herein, for example, the gabapentin prodrug 1-{[(α-isobutanoyloxyethoxy)carbonyl]aminomethyl}-1-cyclohexane acetic acid, is more efficacious than the parent drug molecule (i.e., gabapentin) in treating premature ejaculation because the disclosed compounds require less time to reach a therapeutic concentration in the blood, i.e., the compounds disclosed herein have a shorter Tmax than their gabapentin or pregabalin “counterparts” when taken orally. […] This provides an advantage over the parent drugs (i.e., gabapentin and pregabalin) in that the patient need not wait as long after administering the prodrugs before a therapeutic concentration of the active parent drug in the blood is reached. Thus, the prodrugs disclosed herein allow the patient to dose shortly before sexual activity, allowing sexual activity to occur with more spontaneity, compared to dosing of either gabapentin or pregabalin.

Compound | effect on PCA-induced ejaculation [1] | quality of erection [1] | ejaculatory latency [1] | other effects on copulatory behavior [2] | increase of ejaculatory latency [2] | ejaculatory latency (time to ejaculate) [2] | Tmax [3]
CC(OC(=O)NCC1(CC(=O)O)CCCCC1)OC(=O)C(C)C (stereo not drawn) [Compound (100), 1-{[(α-Isobutanoyloxyethoxy)carbonyl]aminomethyl}-1-Cyclohexane Acetic Acid] | significantly delays | not influenced | about 1000 s | no other significant effects | 58% | about 200 s | 
CC(C)CC(CNC(=O)OC(C)OC(=O)C(C)C)CC(=O)O (stereo not drawn) [Compound (101), 3-{[(α-Isobutanoyloxyethoxy)carbonyl]aminomethyl}-5-methyl Hexanoic Acid] | significantly delays | not influenced | about 1000 s | no other significant effects | 58% | about 200 s | 
NCC1(CC(=O)O)CCCCC1 [gabapentin] |  |  |  |  |  |  | 2.8 to 3.3 h
